Laboratory results: patent US20160213635A1, “COMPOSITIONS USEFUL IN THE PREVENTION OR TREATMENT OF SKIN CANCER” (GIULIANI S.P.A., priority 2013, published 2016)

Tests used:
[1] = system: primary cultures of human keratinocytes, NHKs; assay: Cell viability (incorporation of NR) after pre-treatment with G01 and subsequent UV irradiation; assay type: cell-based; conditions: pre-treatment 24±2 h; UVA 10 J/cm^2, UVB 25 mJ/cm^2; particularly 48 h after irradiation; particularly significant at 90 μM
Procedure: The cells were plated in the specific culture medium and maintained in culture for 24±2 h to allow adhesion to the plate. The cells were treated for 24±2 h with the concentrations of the compound G01 under evaluation, selected based on the previous results. Subsequently, the cells in the plates identified as +UVA and +UVB were respectively exposed, in the irradiation medium, to doses of UVA of 10 J/cm^2 and UVB of 25 mJ/cm^2, while the control plate was maintained in the dark and at room temperature for a period of time equal to the irradiation time. The irradiation medium was then replaced with the culture medium. The cell viability was measured (incorporation of NR) 24±2 h and 48±2 h after the irradiation, following examination of the morphology of the cells under a microscope, in the absence and the presence of treatment with G01 and/or UVA/UVB irradiation. The cell viability values for each condition tested were compared with the value obtained from the control and plotted on a graph to highlight any differences between the various experimental conditions.

NHKs cells [2] = assay: Flow cytometric (annexin V) assessment of UV induced apoptosis after pre-treatment with G01; assay type: cell-based, human; conditions: pre-treatment 90 μM 24±2 h; UVA 25 J/cm^2, UVB 80 mJ/cm^2; 24 h
Procedure: The NHKs cells were plated in the specific culture medium and maintained in culture for 24±2 h to allow adhesion to the plate. Each experimental condition was plated in duplicate. The cells were treated for 24±2 h with G01, in a concentration of 90 μM. Subsequently, the plates identified as +UVA, +G01/UVA, +UVB, and +G01/UVB were respectively exposed, in the irradiation medium, to doses of UVA of 25 J/cm^2 and UVB of 80 mJ/cm^2, while the control plates (Ctr) and those treated only with the compound under examination (G01) were maintained in the dark and at room temperature for a period of time equal to the irradiation time. The irradiation medium was then replaced with the culture medium. Based on the preliminary results obtained on a broader time range, a post-treatment time of 24 h was selected, after which the plates were processed according to the procedure given in the user manual of the specific kit for annexin V flow cytometric analysis (Annexin V), a typical assay to detect the early stages of apoptosis. The positivity for annexin V in each condition tested (treatment with G01 and/or UVA/UVB irradiation) was compared with the positivity in the control cells.

NHKs cells [3] = assay: Western Blot assessment (non-cleaved caspase 3) of UV induced apoptosis after pre-treatment with G01; assay type: cell-based, human; conditions: pre-treatment 90 μM 24±2 h; UVA 25 J/cm^2, UVB 80 mJ/cm^2; 24 h
Procedure: The NHKs cells were plated in the specific culture medium and maintained in culture for 24±2 h to allow adhesion to the plate. Each experimental condition was plated in duplicate. The cells were treated for 24±2 h with the compound G01, in a concentration of 90 μM. Subsequently, the cells identified as +UVA, +G01/UVA, +UVB, and +G01/UVB were respectively exposed, in the irradiation medium, to doses of UVA of 25 J/cm^2 and UVB of 80 mJ/cm^2, while the control plates and those treated only with G01 were maintained in the dark and at room temperature for a period of time equal to the irradiation time. The irradiation medium was then replaced with the culture medium. Based on the preliminary results obtained on a broader time range, a post-treatment time of 24 h was selected, after which the plates were processed for Western Blot protein determination. The protein expression of non-cleaved caspase 3 in each condition tested (treatment with G01 and/or UVA/UVB irradiation) was compared with the expression in the control cells (Ctr).

NHKs cells [4] = assay: Western Blot assessment (non-cleaved caspase 3) of apoptosis induced by UV irradiation and subsequent treatment with G01; assay type: cell-based, human; conditions: post-treatment 90 μM; UVA 25 J/cm^2, UVB 80 mJ/cm^2; 24 h
Procedure: The NHKs cells were plated in the specific culture medium and maintained in culture for 24±2 h to allow adhesion to the plate. Subsequently, the plates identified as +UVA, +G01/UVA, +UVB, and +G01/UVB were respectively exposed, in the irradiation medium, to doses of UVA of 25 J/cm^2 and UVB of 80 mJ/cm^2, while the control plates (Ctr) and those treated only with the compound under examination (G01) were maintained in the dark and at room temperature for a period of time equal to the irradiation time. The irradiation medium was then replaced with the culture medium containing the compound G01, in a concentration of 90 μM. Based on the preliminary results obtained on a broader time range, a post-treatment time of 24 h was selected, after which the plates were processed for Western Blot protein determination. The protein expression of non-cleaved caspase 3 in each condition tested (treatment with the compound G01 under examination and/or UVA/UVB irradiation) was compared with the expression in the control cells.

NHKs cells [5] = assay: ELISA CPDs determination after UVB irradiation and subsequent treatment with G01; assay type: cell-based, human; conditions: post-treatment 90 μM; UVB 25 mJ/cm^2; 6 h and 24 h
Procedure: The NHKs cells were plated in the specific culture medium and maintained in culture for 24±2 h to allow adhesion to the plate. Then, the plates identified as +UVB and +G01/UVB were respectively exposed, in the irradiation medium, to a UVB dose of 25 mJ/cm^2, while the control plates (Ctr) and those treated only with the compound under examination (G01) were maintained in the dark and at room temperature for a period of time equal to the irradiation time. The irradiation medium was then replaced with the culture medium containing the compound G01, in a concentration of 90 μM. Based on the preliminary results obtained on a broader time range, post-treatment times of 6 h and 24 h were selected, after which the plates were processed according to the procedure described in the work instruction specific for the DNA extraction. The CPDs determination was performed using a specific ELISA kit following the procedure described in the user manual.

NHKs cells [6] = assay: Immunofluorescence of phosphorylated histone γH2AX after UVA or UVB irradiation and subsequent treatment with G01; assay type: cell-based, human; conditions: post-treatment 90 μM; UVA 10 J/cm^2 or UVB 25 mJ/cm^2; 24 h; vs cells only irradiated
Procedure: The NHKs cells were plated in the specific culture medium and maintained in culture for 24±2 h to allow adhesion to the plate. Subsequently, the plates identified as +UVA, +UVA/G01 post, UVB, and +UVB/G01 post were respectively exposed, in irradiation medium, to doses of UVA of 10 J/cm^2 or UVB of 25 mJ/cm^2. The irradiation medium was then replaced with the culture medium containing the compound of the invention G01, in a concentration of 90 μM. Based on preliminary results obtained on a broader time range, a post-treatment time of 24 h was selected, after which the plates were processed for the immunofluorescence determination of the protein expression of the phosphorylated histone γH2AX, whose expression is associated to the amount of DNA damage (double strand breaks). The protein expression of the phosphorylated histone γH2AX after treatment with the compound of the invention G01, or only after irradiation with UVA/UVB, was compared with the expression in the control cells.

C/C=C/C=C/C=C/C(=O)O [G01, 2,4,6-trans-octatrienoic acid]
cell viability after UVA/UVB irradiation [1]: general protective effect of cell viability | apoptosis (positivity for annexin V) induced by UVA and UVB (NHKs cells [2]): reduce the apoptosis | caspase 3 activation (protein expression of non-cleaved caspase 3) (NHKs cells [3]): reduce caspase 3 activation | caspase 3 activation (protein expression of non-cleaved caspase 3) (NHKs cells [4]): reduce caspase 3 activation | CPDs products (pyrimidine cyclobutane dimers) (NHKs cells [5]): promote the removal of CPDs products | fraction of phosphorylated histone γH2AX (NHKs cells [6]): significant reduction
